Converted amounts (≈) assume the structure as drawn. Like-named read-outs stand apart in the source and are kept apart here.
Assays:
Assay type in all cases: cell-based
Candida krusei ATCC 6258 = experiment: MIC/CFM by microdilution (CLSI M27-A2); conditions: Pichia kudriavzevii, ATCC6258, read-out: MIC
[1] = system: Candida tropicalis USP B3; experiment: MIC by microdilution (CLSI M27-A2); conditions: Candida tropicalis, USPB3; Table 14, C. Tropicalis UPS B3; read-out: MIC
[2] = system: Candida tropicalis USP 1658; experiment: MIC by microdilution (CLSI M27-A2); conditions: Candida tropicalis, USP1658; Table 12, C. tropicalis USP 1658, 48 h, 35° C.; read-out: MIC
C. Albicans USP 2 = experiment: MIC/CFM against Candida sp. strains
[3] = system: Candida albicans USP 1565; experiment: MIC by microdilution (CLSI M27-A2); conditions: Candida albicans, USP1565; Table 12, C. albicans USP 1565, 48 h, 35° C.; read-out: MIC
[4] = system: Candida guilhermondii USP; experiment: MIC/CFM by microdilution (CLSI M27-A2); conditions: for MIC: read-out: MIC
[5] = system: Candida parapsilosis ATCC 22019; experiment: MIC/CFM by microdilution (CLSI M27-A2); conditions: Lodderomyces parapsilosis, ATCC22019; for MIC: read-out: MIC
Candida glabrata ATCC = experiment: MIC/CFM against Candida sp. strains; conditions: Nakaseomyces glabratus, Table 14, Candida glabrata ATCC
Candida krusei USP 2223 = experiment: MIC by microdilution (CLSI M27-A2); conditions: Pichia kudriavzevii, USP2223, read-out: MIC
[6] = system: Microsporum canis ATCC 32903; experiment: MIC by microdilution, filamentous fungi (CLSI M38-A); conditions: ATCC32903, 168 h; Table 13, Microsporum canis ATCC 32903, 7 days, 28° C.; read-out: MIC
Method: (§1) Pure substances termed P1 and P2 previously dissolved in 20% DMSO, were diluted in RPMI medium, with final concentrations of 96 μg.mL-1. […] Cultures of filamentous fungi described below were inoculated in Agar-Batata Dextrose medium and inoculated for 7 days, at 28° C. Colonies of cultures inoculated for 7 days in an oven at 28° C. were shrouded with 0.85% saline solution, scraped and then transferred to conical tubes. After resting for 5 minutes, the supernatant was transferred to new conical tubes for subsequent quantification in spectrophotometer, at 530 nm, with the transmittance adjustment of 80-82% for A. niger and 70% for other microorganisms. After adjustment, there was a 1:50 dilution in RPM. The determination of Minimum Inhibitory Concentration was performed after 7 days, at 28° C. After the incubation period, aliquots of 96-well plates were transferred to Petri plates with Potato Dextrose Agar, to determine the Minimum Fungicidal Concentration. Plates were inoculated for more 7 days, at 28° C.

[7] = system: Trichophyton menthagrophyton ATCC 9533; experiment: as above; conditions: ATCC9533, 168 h; Table 13, Trichophyton menthagrophyton ATCC 9533, 7 days, 28° C.; read-out: MIC
Method: as §1

[8] = system: Candida parapsilosis USP 1933; experiment: MIC/CFM by microdilution (CLSI M27-A2); conditions: Lodderomyces parapsilosis, USP1933; for MIC: read-out: MIC
[9] = system: Candida albicans OF-M3-20; experiment: MIC/CFM by microdilution (CLSI M27-A2); conditions: Candida albicans, OFM320; for MIC: read-out: MIC
Method: (§2) Pure substances termed P1 and P2 previously dissolved in 20% DMSO, were diluted in RPMI medium, with final concentrations of 96 μg.mL-1. […] The same was also tested individually, diluted in RPMI medium, with initial concentration of 1 μL.mL-1. […] Cultures of Candida sp. were prepared and standardized in […] saline solution at 0.85%. For inoculums standardization, a spectrophotometer equipment was used, with wavelength at 530 nm and absorbance adjustment between 0.130 and 0.150, having as white the saline solution free of inoculum or any other contaminant, corresponding to concentrations of 10^6 CFU/mL. In this condition the inoculum “mother” was diluted 50 times and from this inoculum “child” the dilution was performed 20 times to obtain a standard inoculum in 10^3 cells per well. […] To aid in the growth view, were added to the wells dye 50 μL 2,3,5-triphenyltetrazolium chloride (TTC) at 5 mg.mL “1, being performed the readings after 4 hours of incubation. Prior to the addition of dye, aliquots of 96-well plate were transferred to Petri with Agar-Sabouraud Dextrose to determine the Minimum Fungicidal Concentration. Plates were incubated for 24 hours at 35° C.

[10] = system: Candida albicans OF-M7-19; experiment: MIC/CFM by microdilution (CLSI M27-A2); conditions: Candida albicans, OFM719; for MIC: read-out: MIC
Method: as §2

Candida albicans USP 1 = experiment: MIC/CFM by microdilution (CLSI M27-A2); conditions: Candida albicans, USP1; for MIC: read-out: MIC
Method: as §2

[11] = system: Candida albicans ATCC 10231; experiment: MIC/CFM by microdilution (CLSI M27-A2); conditions: Candida albicans, ATCC10231; for MIC: read-out: MIC

`Clc1ccc(COC(Cn2ccnc2)c2ccc(Cl)cc2Cl)c(Cl)c1` (stereo not shown) [Miconazol] was tested, and the MIC (Candida krusei ATCC 6258; Table 12, C. krusei ATCC 6258, 48 h, 35° C.) was under 1 µg/mL, the MIC (Candida krusei ATCC 6258; Table 14, C. krusei ATCC) was 1 µg/mL (≈ 2.4 µM) and the MIC [1] was under 0.5 µg/mL. The MIC [2] was under 2 µg/mL, the MIC (C. Albicans USP 2; Table 14, C. Albicans USP 2) was under 0.5 µg/mL and the MFC (C. Albicans USP 2; Table 14, C. Albicans USP 2, read-out: CFM (Minimum Fungicidal Concentration)) was under 0.5 µg/mL. For the same compound, the MIC [3] was under 0.125 µg/mL, the MIC ([4]; Candida, Table 12, C. guilhermondii USP, 48 h, 35° C.) was 2 µg/mL (≈ 4.81 µM) and the MFC ([4]; Table 14, Candida guilhermondi USPATCC, read-out: CFM (Minimum Fungicidal Concentration)) was 1 µg/mL (≈ 2.4 µM). It also gave an MIC ([4]; Table 14, Candida guilhermondi USPATCC) of 1 µg/mL (≈ 2.4 µM), an MIC ([5]; Table 12, C. parapsilosis ATCC 22019, 48 h, 35° C.) of 1 µg/mL (≈ 2.4 µM) and an MFC ([5]; Table 14, C. parapsilosis ATCC 22019, read-out: CFM (Minimum Fungicidal Concentration)) of 1 µg/mL (≈ 2.4 µM). For the same compound, the MIC ([5]; Table 14, C. parapsilosis ATCC 22019) was 1 µg/mL (≈ 2.4 µM), the MIC (Candida glabrata ATCC) was under 0.5 µg/mL and the MFC (Candida glabrata ATCC; read-out: CFM (Minimum Fungicidal Concentration)) was 2 µg/mL (≈ 4.81 µM). The MIC (Candida krusei USP 2223; Table 12, C. krusei USP 2223, 48 h, 35° C.) was 1 µg/mL (≈ 2.4 µM), the MIC (Candida krusei USP 2223; Table 14, C. krusei USP 2223) was 4 µg/mL (≈ 9.61 µM) and the MIC [6] was 2 µg/mL (≈ 4.81 µM). For the same compound, the MIC [7] was 2 µg/mL (≈ 4.81 µM), the MIC ([8]; Table 12, C. parapsilosis USP 1933, 48 h, 35° C.) was 1 µg/mL (≈ 2.4 µM) and the MFC ([8]; Table 14, C. parapsilosis USP 1933 ATCC, read-out: CFM (Minimum Fungicidal Concentration)) was under 0.5 µg/mL. The MIC ([8]; Table 14, C. parapsilosis USP 1933 ATCC) was under 0.5 µg/mL, the MIC ([9]; Table 12, C. albicans OF M3-20, 48 h, 35° C.) was under 0.125 µg/mL and the MFC ([9]; Table 14, C. Albicans OF M3-20, read-out: CFM (Minimum Fungicidal Concentration)) was under 0.5 µg/mL. For the same compound, the MIC ([9]; Table 14, C. Albicans OF M3-20) was under 0.5 µg/mL, the MIC ([10]; Table 12, C. albicans OF M7-19, 48 h, 35° C.) was under 0.125 µg/mL and the MFC ([10]; Table 14, C. Albicans OF M7-19, read-out: CFM (Minimum Fungicidal Concentration)) was under 0.5 µg/mL. It also gave an MIC ([10]; Table 14, C. Albicans OF M7-19) of under 0.5 µg/mL, an MIC (Candida albicans USP 1; Table 12, C. albicans USP 1, 48 h, 35° C.) of under 0.125 µg/mL and an MFC (Candida albicans USP 1; Table 14, C. Albicans USP 1, read-out: CFM (Minimum Fungicidal Concentration)) of 4 µg/mL (≈ 9.61 µM). It also gave an MIC (Candida albicans USP 1; Table 14, C. Albicans USP 1) of 1 µg/mL (≈ 2.4 µM), an MIC ([11]; Table 12, C. albicans ATCC 10231, 48 h, 35° C.) of 4 µg/mL (≈ 9.61 µM) and an MFC ([11]; Table 14, C. Albicans ATCC 10231, read-out: CFM (Minimum Fungicidal Concentration)) of 1 µg/mL (≈ 2.4 µM). The MIC ([11]; Table 14, C. Albicans ATCC 10231) was under 0.5 µg/mL.

From patent publication US20150126465A1, “PROCESS FOR PRODUCING DERIVATIVES OF PYROSTEGIA VENUSTA, DERIVATIVES OF PYROSTEGIA VENUSTA, PHARMACEUTICAL COMPOSITIONS AND ITS USES” (priority 2011, published 2015)
